Drawing on patent US8980934B2, “Kinase inhibitors and method of treating cancer with same” (University Health Network, priority 2012, dated 2015), this text covers GI50 for five compounds.

By GI50 is commonly meant the concentration that inhibits growth by half.

What all share (format): cell-based
The subject of assay [1] is ovarian 2393A tumor initiating cells. Nature of the assay: Ovarian tumor-initiating cell growth inhibition, Alamar Blue assay. As to conditions: 144 h, ovarian TICs, 6 days culture, read-out: Tumor Initiating Cell Line GI50 Range ovarian 2393A. From the text:
(§1) Non-tissue or tissure cultured treated T-75 flask and 96-well plates were purchased from VWR. Vitamin B-27 supplement, MEM NEAA (minimum essential medium non essential amino acids), sodium pyruvate, L-glutamine, N2 supplement, penicillin-streptomycin and fungizone/amphotericin B were obtained from Invitrogen. Lipid mixture, heparin and EGF were purchased from Sigma; bFGF from BD Biosciences. Colon tumor initiating cells (TICs) were routinely maintained using non-tissue cultured treated T-75 flasks in DMEM:F12 medium containing 0.2XB-27 supplement, 4 ug/ml heparin, 1XMEM NEAA, 1Xsodium pyruvate, 1 mM glutamine, 10 pg/ul bFGF, 20 pg/ul EGF, 1×N2 supplement, lipid mixture, penicillin-streptomycin and fungizone/amphotericin B. Ovarian TICs were routinely maintained using tissue cultured treated T-75 flasks in DMEM:F12 medium containing 1XB-27 supplement, 4 ug/ml heparin, 20 pg/ul bFGF, 20 pg/ul EGF and penicillin-streptomycin.
(§2) Compounds described herein were dissolved in DMSO and further diluted in cell culture medium for GI50 determination. Colon TICs were trypsinized and seeded into non-tissue cultured treated 96-well plates with 4,000 cells/well. After 24 h, compound was added into the cell culture at different concentrations, and the final concentration of DMSO was adjusted to 0.1%. Cells were then cultured at 37° C. for 9 days. Ovarian TICs were trypsinized and seeded into tissue cultured treated 96-well plates with 1,000 cells/well. After 24 h, compound was added into the cell culture at different concentrations, and the final concentration of DMSO was adjusted to 0.1%. Cells were then cultured at 37° C. for 6 days. Cell viability was assessed by Alamar Blue assay: 10 ul of Alamar Blue was added into each well. After 4 hours incubation at 37° C., fluorescence was recorded at excitation 544 and emission 590. GI50 (Growth inhibition) was calculated using GraphPad Prism 4.0 software. Cell growth inhibition data for compounds described herein is tabulated below (Table 2). The GI50 ranges are indicated as “A,” and “B”, for values less than or equal to 0.1 μM: those greater than 0.1 μM and less than or equal to 0.5 μM, respectively.
In general terms: Resazurin is reduced to fluorescent resorufin, in cell work by metabolically active cells.

Assay [2] concerns colon 12 tumor initiating cells. In words: Colon tumor-initiating cell growth inhibition, Alamar Blue assay. As to conditions: 216 h, colon TICs, 9 days culture, read-out: Tumor Initiating Cell Line GI50 Range colon 12.
Description: as §1, §2

Assay [3] deals with PA-1 ovarian cancer cells. In words: Cancer cell growth inhibition, Sulforhodamine B assay. As to conditions: 120 h; PA-1, 5 days culture, SRB; read-out: Cancer Cell Line GI50 Range PA-1. The protocol:
(§3) Breast cancer cells (MDA-MB-231), colon cancer cells (HCT116) and ovarian cancer cells (PA-1) were seeded (1000 to 4000 in 80 μl per well depending on the cell growth rate) into 96 well plates 24 hours before compound overlay. Compounds were prepared as 10 mM stock solutions in 100% DMSO which were diluted with DMEM (Dulbecco's Modified Eagle's Medium) cell growth Medium (Invitrogen, Burlington, ON, Canada) containing 10% FBS (Fetal Bovine Serum) to concentrations ranging from 50 nM to 250 μM. Aliquots (20 μl) from each concentration were overlaid to 80 μl of the pre-seeded cells in the 96 well plates to make final concentrations of 10 nM to 50 μM. The cells were cultured for 5 days before the Sulforhodamine B assay (SRB) was performed to determine the compound's cell growth inhibition activity.
(§4) Sulforhodamine B (purchased from Sigma, Oakville, ON, Canada) is a water-soluble dye that binds to the basic amino acids of the cellular proteins. Thus, colorimetric measurement of the bound dye provides an estimate of the total protein mass that is related to the cell number. the cells are fixed in situ by gently aspirating off the culture media and adding 50 μl ice cold 10% Trichloroacetic Acid (TCA) per well and incubate at 4° C. for 30-60 min. The plates are washed with H2O five times and allowed to air dry for 5 min. Addition of 50 μl 0.4% (w/v) SRB solution in 1% (v/v) acetic acid to each well and incubatation for 30 min at RT completes the staining reaction. Following staining, plates are washed four times with 1% acetic acid to remove unbound dye and then allowed to air dry for 5 min. The stain is solubilized with 100 μl of 10 mM Tris pH 10.5 per well. Absorbance is read at 570 nm.
(§5) The percentage (%) of relative growth inhibition was calculated by comparing to DMSO treated only cells (100%). GI50's were determined for compounds with cytotoxic activity. The GI50 was calculated using GraphPad PRISM software (GraphPad Software, Inc., San Diego, Calif., USA). GI50 (growth inhibition) is the compound concentration that causes 50% inhibition of cell growth.
(§6) In Table 1 below, GI50 value ranges for several compound examples against breast cancer cell lines (MDA-MB-231), colon cancer cell lines (HCT116) and ovarian cancer cell lines (PA-1) are given. […] The GI50 ranges are indicated as “A,” “B,” and “C,” for values less than or equal to 0.1 μM; those greater than 0.1 μM and less than or equal to 0.5 μM; and those greater than 0.5 μM, respectively.
(In SRB staining, fixed cells bind dye roughly in proportion to their protein.)

Assay [4] deals with HCT116 colon cancer cells. Described as above. Particulars: Homo sapiens, HCT-116, 120 h; HCT116, 5 days culture, SRB; read-out: Cancer Cell Line GI50 Range HCT116. Here is the method: as §3, §4, §5, §6
Assay [5] has as its system MDA-MB-231 breast cancer cells. Described as above. Particulars: Homo sapiens, 120 h; MDA-MB-231, 5 days culture, SRB; read-out: Cancer Cell Line GI50 Range MDA-MB-231. Here is the method:
as §3, §4, §5, §6

Some results are limits rather than exact numbers.

As to `O=C(N[C@H](c1ccccn1)C1CCCC1)c1ccc2[nH]nc(-c3ccc(N4CC5(CCOCC5)C4)cc3)c2c1` [Example A19, (S)-3-(4-(7-Oxa-2-azaspiro[3.5]nonan-2-yl)phenyl)-N-(cyclopentyl(pyridin-2-yl)methyl)-1H-indazole-5-carboxamide], the GI50 is 100 to 500 nM in assay [1]; ≤ 100 nM in assay [2]; ≤ 100 nM in assay [3]; ≤ 100 nM in assay [4]; ≤ 100 nM in assay [5].
Turning to `O=C(N[C@H](c1ccccn1)C1CCCC1)c1ccc2[nH]nc(-c3ccc(N4CC5(CCO5)C4)cc3)c2c1` [Example A20, (S)-3-(4-(1-oxa-6-azaspiro[3.3]heptan-6-yl)phenyl)-N-(cyclopentyl(pyridin-2-yl)methyl)-1H-indazole-5-carboxamide], the GI50 in assay [1], in assay [2], in assay [3], in assay [4] and in assay [5] was ≤ 100 nM throughout.
With `CC(C)[C@H](NC(=O)c1ccc2[nH]nc(-c3ccc(N4CC5(CCO5)C4)cc3)c2c1)c1ccccc1Cl` [Example A23, (S)-3-(4-(1-Oxa-6-azaspiro[3.3]heptan-6-yl)phenyl)-N-(1-(2-chlorophenyl)-2-methylpropyl)-1H-indazole-5-carboxamide], the GI50 in assay [1], in assay [2], in assay [3], in assay [4] and in assay [5] was ≤ 100 nM throughout.
Consider `O=C(NC(c1ncccn1)C1CCCC1)c1ccc2[nH]nc(-c3ccc(N4CC5(COC5)C4)cc3)c2c1` (stereo not shown) [Example A24, 3-(4-(2-oxa-6-azaspiro[3.3]heptan-6-yl)phenyl)-N-(cyclopentyl(pyrimidin-2-yl)methyl)-1H-indazole-5-carboxamide], for which the GI50 in assay [1], in assay [2], in assay [3], in assay [4] and in assay [5] was ≤ 100 nM throughout.
With `CC(C)[C@H](NC(=O)c1ccc2[nH]nc(-c3ccc(N4CC5(CC(O)C5)C4)cc3)c2c1)c1ccccc1Cl` [Example A32, (S)-N-(1-(2-Chlorophenyl)-2-methylpropyl)-3-(4-(6-hydroxy-2-azaspiro[3.3]heptan-2-yl)phenyl)-1H-indazole-5-carboxamide], the GI50 in assay [1], in assay [2], in assay [3], in assay [4] and in assay [5] was ≤ 100 nM throughout.
